Columns and labels:
Assay type in all cases: in vivo
[1] = test system: Aphis gossypii; test: Test Example 2: foot drench of cucumber seedling on urethane mat, Aphis gossypii; settings: soil, 168 h, 5 ml drench at foot of cucumber seedling on urethane mat, inoculated one day after treatment, checked seven days after
Method: The formulations of the present active compounds (4), (5), (8), (9), (11), (12), (14), (15), (17), (20), (35) to (45), (48) to (51), (54) to (56), (206), (209) and (211) to (213) obtained by Formulation Example 5 were diluted with water so that the active ingredient concentration was 500 ppm, to prepare diluted solutions for test. Separately, a cucumber seedling (second true leaf spreading stage) planted on a urethane mat was drenched at its foot with each 5 ml of the diluted solutions, and one day after treatment, the cucumber leaf surface was inoculated with 30 Aphis gossypii (whole stage). Further seven days after, the number of insect of living Aphis gossypii […] on the leaves of this cucumber was checked, and the control value was calculated according to the following formula. Control value (%)={1-(Cb×Tai)/(Cai×Tb)}×100 Letters in the formula represent the following meanings. Cb: the number of insect before treatment on non-treated district Cai: the number of insect in observation on non-treated district Tb: the number of insect before treatment on treated district Tai: the number of insect in observation on treated district

[2] = test system: Nilaparvata lugens; test: Test Example 9: foot drench of rice seedling, twenty first instar larvae of Nilaparvata lugens; settings: soil, 144 h, 5 ml drench at foot of rice seedling, kept 7 days, twenty first instar larvae released, further 6 days
Method: The formulations of the present active compounds (6), (7), (18), (22), (25), (30), (33), (46), (47), (53), (101) to (103), (106), (121) to (124), (126) to (128), (135), (139), (216) and (217) obtained by Formulation Example 5 were diluted with water so that the active ingredient concentration was 500 ppm, to prepare diluted solutions for test. Separately, a rice seedling (2 weeks after sowing, second leaf spreading stage) planted on a plastic cup was drenched at its foot with each 5 ml of the diluted solutions, and kept in a greenhouse of 25° C. for 7 days. Twenty first instar larvae of Nilaparvata lugens were released, and further kept in the greenhouse for 6 days, then, the number of insect of living Nilaparvata lugens […] on rice was checked, and the control value was calculated according to the following formula. Control value (%)={1-(Cb×Tai)/(Cai×Tb)}×100 Letters in the formula represent the following meanings. Cb: the number of insect before treatment on non-treated district Cai: the number of insect in observation on non-treated district Tb: the number of insect before treatment on treated district Tai: the number of insect in observation on treated district

[3] = test system: Nilaparvata lugens; test: Test Example 8: spray on rice seedling, 20 first instar larvae of Nilaparvata lugens; settings: 144 h, 10 ml sprayed on rice seedling, 20 first instar larvae released, 6 days at 25° C.
Method: The formulations of the present active compounds (6), (7), (18), (21), (24), (25), (28) to (30), (32), (46), (52), (101) to (103), (105) to (107), (111), (112), (115), (119) to (124), (126) to (130), (133) to (135), (139), (142), (144) to (146), (149) to (151), (153), (154), (216) and (217) obtained by Formulation Example 5 were diluted with water so that the active ingredient concentration was 500 ppm, to prepare spray solutions for test. Separately, on a rice seedling (2 weeks after sowing, second leaf spreading stage) planted on a plastic cup, the drug solutions for test prepared as described above were sprayed each in an amount of 10 ml. After drying of the drug solution sprayed on rice, 20 first instar larvae of Nilaparvata lugens were released, and kept in a greenhouse of 25° C. for 6 days. Thereafter, the number of Nilaparvata lugens […] on rice was checked, and the control value was calculated according to the following formula. Control value (%)={1-(Cb×Tai)/(Cai×Tb)}×100 Letters in the formula represent the following meanings. Cb: the number of insect before treatment on non-treated district Cai: the number of insect in observation on non-treated district Tb: the number of insect before treatment on treated district Tai: the number of insect in observation on treated district

[4] = test system: Aphis gossypii; test: Test Example 3: root immersion of cucumber seedling, Aphis gossypii; settings: 168 h, cucumber root part immersed in 5 ml, inoculated one day after treatment, checked seven days after
Method: The formulations of the present active compounds (18), (19), (21), (22), (24), (25), (28), (31) to (34), (46), (47), (52), (53), (101) to (104), (106) to (108), (112) to (114), (117), (118), (122), (123), (126), (128), (129), (133), (134), (138), (144), (153) to (155) and (157) obtained by Formulation Example 5 were diluted with water so that the active ingredient concentration was 500 ppm, to prepare diluted solutions for test. A root part of a cucumber seedling (first true leaf spreading stage) from which soil had been washed off was immersed in 5 ml of this diluted solution, and one day after treatment, the cucumber leaf surface was inoculated with 30 Aphis gossypii (whole stage). Further seven days after, the number of insect of living Aphis gossypii […] on the leaves of this cucumber was checked, and the control value was calculated according to the following formula. Control value (%)={1-(Cb×Tai)/(Cai×Tb)}×100 Letters in the formula represent the following meanings. Cb: the number of insect before treatment on non-treated district Cai: the number of insect in observation on non-treated district Tb: the number of insect before treatment on treated district Tai: the number of insect in observation on treated district

[5] = test system: Aphis gossypii; test: Test Example 4: foot drench of cucumber seedling in plastic cup, inoculation after 7 days, Aphis gossypii; settings: soil, 144 h, 5 ml drench at foot of cucumber seedling in plastic cup, kept 7 days at 25° C., inoculated, further 6 days
Method: The formulations of the present active compounds (3) to (7), (17), (19), (20), (22), (29) to (31), (35) to (37), (39), (41) to (45), (47) to (56), (101), (106), (121) to (123), (128), (131), (137), (139), (143), (145), (147), (211) to (213), (216) and (217) obtained by Formulation Example 5 were diluted with water so that the active ingredient concentration was 500 ppm, to prepare diluted solutions for test. Separately, a cucumber seedling (second true leaf spreading stage) planted on a plastic cup was drenched at its foot with each 5 ml of the diluted solutions, and kept in a greenhouse of 25° C. for 7 days. The cucumber leaf surface was inoculated with 30 Aphis gossypii (whole stage), and further kept in the greenhouse for 6 days, then, the number of insect of living Aphis gossypii […] on the leaves of this cucumber was checked, and the control value was calculated according to the following formula. Control value (%)={1-(Cb×Tai)/(Cai×Tb)}×100 Letters in the formula represent the following meanings. Cb: the number of insect before treatment on non-treated district Cai: the number of insect in observation on non-treated district Tb: the number of insect before treatment on treated district Tai: the number of insect in observation on treated district

Compound | pest or weed control at 500 ppm [1] | pest or weed control at 500 ppm [2] | pest or weed control at 500 ppm [3] | pest or weed control at 500 ppm [4] | pest or weed control at 500 ppm [5]
Cn1c(-c2ccncc2F)nc2cc(C(F)(F)F)ccc21 [present active compound 4, 2-(3-fluoropyridin-4-yl)-1-methyl-5-trifluoromethyl-1H-benzimidazole] | ≥ 90% | – | – | – | –
Cn1c(-c2ccncc2Cl)nc2cc(C(F)(F)F)ccc21 [present active compound 5, 2-(3-chloropyridin-4-yl)-1-methyl-5-trifluoromethyl-1H-benzimidazole] | ≥ 90% | – | – | – | –
Cc1cnccc1-c1nc2cc(C(F)(F)F)ccc2n1C [present active compound 6, 1-methyl-2-(3-methylpyridin-4-yl)-5-trifluoromethyl-1H-benzimidazole] | – | ≥ 90% | ≥ 90% | – | –
CCc1cnccc1-c1nc2cc(C(F)(F)F)ccc2n1C [present active compound 7, 2-(3-ethylpyridin-4-yl)-1-methyl-5-trifluoromethyl-1H-benzimidazole] | – | ≥ 90% | ≥ 90% | – | –
COc1cnccc1-c1nc2cc(C(F)(F)F)ccc2n1C [present active compound 8, 2-(3-methoxypyridin-4-yl)-1-methyl-5-trifluoromethyl-1H-benzimidazole] | ≥ 90% | – | – | – | –
CCOc1cnccc1-c1nc2cc(C(F)(F)F)ccc2n1C [present active compound 9, 2-(3-ethoxypyridin-4-yl)-1-methyl-5-trifluoromethyl-1H-benzimidazole] | ≥ 90% | – | – | – | –
Cn1c(-c2ccncc2OC(C)(C)C)nc2cc(C(F)(F)F)ccc21 [present active compound 12, 2-(3-tert-butoxypyridin-4-yl)-1-methyl-5-trifluoromethyl-1H-benzimidazole] | ≥ 90% | – | – | – | –
Cn1c(-c2ccncc2OCC(F)F)nc2cc(C(F)(F)F)ccc21 [present active compound 14, 2-[3-(2,2-difluoroethoxy)-pyridin-4-yl]-1-methyl-5-trifluoromethyl-1H-benzimidazole] | ≥ 90% | – | – | – | –
Cn1c(-c2ccncc2OCCF)nc2cc(C(F)(F)F)ccc21 [present active compound 15, 2-[3-(2-fluoroethoxy)-pyridin-4-yl]-1-methyl-5-trifluoromethyl-1H-benzimidazole] | ≥ 90% | – | – | – | –
Cn1c(-c2ccncc2[S+](C)[O-])nc2cc(C(F)(F)F)ccc21 (stereo not drawn) [present active compound 18, 2-(3-methanesulfinylpyridin-4-yl)-1-methyl-5-trifluoromethyl-1H-benzimidazole] | – | ≥ 90% | ≥ 90% | ≥ 90% | –
CCSc1cnccc1-c1nc2cc(C(F)(F)F)ccc2n1C [present active compound 20, 2-(3-ethylthiopyridin-4-yl)-1-methyl-5-trifluoromethyl-1H-benzimidazole] | ≥ 90% | – | – | – | ≥ 90%
CCS(=O)(=O)c1cnccc1-c1nc2cc(C(F)(F)F)ccc2n1C [present active compound 22, 2-(3-ethanesulfonylpyridin-4-yl)-1-methyl-5-trifluoromethyl-1H-benzimidazole] | – | ≥ 90% | – | ≥ 90% | ≥ 90%
COCCOc1cnccc1-c1nc2cc(C(F)(F)F)cnc2n1C [present active compound 46, 2-[3-(2-methoxyethoxy)-pyridin-4-yl]-3-methyl-6-trifluoromethyl-3H-imidazo[4,5-b]pyridine] | – | ≥ 90% | ≥ 90% | ≥ 90% | –
CCS(=O)(=O)c1cnccc1-c1nc2cc(C(F)(F)F)cnc2n1C [present active compound 53, 2-(3-ethanesulfonylpyridin-4-yl)-3-methyl-6-trifluoromethyl-3H-imidazo[4,5-b]pyridine] | – | ≥ 90% | – | ≥ 90% | –
CN(C)C(=O)c1cnccc1-c1nc2cc(C(F)(F)F)cnc2n1C [present active compound 139] | – | ≥ 90% | ≥ 90% | – | ≥ 90%
Cc1cnccc1-c1nc2cc(C(F)(F)F)cnc2n1C [present active compound 216, 3-methyl-2-(3-methylpyridin-4-yl-)-6-trifluoromethyl-3H-imidazo[4,5-b]pyridine] | – | ≥ 90% | ≥ 90% | – | ≥ 90%
CCc1cnccc1-c1nc2cc(C(F)(F)F)cnc2n1C [present active compound 217, 2-(3-ethylpyridin-4-yl-)-3-methyl-6-trifluoromethyl-3H-imidazo[4,5-b]pyridine] | – | ≥ 90% | ≥ 90% | – | ≥ 90%

Source: US8461181B2, “Fused heterocyclic compound and use thereof” (Sumitomo Chemical Company, Ltd., priority 2009, dated 2013)
